Measurements published in patent publication US20260240869A1, “ANTIPSEUDOMONAL FUSIDIC ACID COMPOUNDS” (priority 2022, published 2026).
≈ marks a conversion by molar mass, not a printed value. Read-outs that look alike come from different tables or passages of the source.

What was measured:
[1] = test system: P. aeruginosa PAO1; test: LC-MS/MS whole-cell accumulation assay, P. aeruginosa PAO1; assay type: cell-based, Pseudomonas aeruginosa; conditions: for PA accum.: P. aeruginosa, value ± s.e.m. (Chart 2); for WT Accum: WT PAO1, ± s.e.m. (Table 7)
Procedure: (§1) Accumulation Assay. The accumulation assay was performed in triplicate in batches of ten samples, with each batch containing tetracycline or ciprofloxacin as a positive control. P. aeruginosa PAO1, PAO1 A6, PA14, PA14 A40, and PA1280, and E. coli MG1655 were used in these experiments. For each replicate, 2.5 mL (E. coli) or 5 mL (P. aeruginosa) of an overnight culture was diluted into 250 mL of fresh Luria-Bertani broth (Lennox) or Tryptic Soy Broth (TSB) and grown at 37° C. with shaking to an optical density (OD600) of 0.55-0.60. The bacteria were pelleted at 3220 r.c.f. for 10 min at 4° C., and the supernatant was discarded. The pellets were resuspended in 40 mL of phosphate buffered saline (PBS) and pelleted as before, and the supernatant was discarded. The pellets were resuspended in 8.8 mL of fresh PBS and aliquoted into ten, 1.5 mL Eppendorf tubes (875 μL each). The number of colony-forming units (CFUs) was determined by a calibration curve. The samples were equilibrated at 37° C. with shaking for 5 min; compound was added (final concentration=50 μM), and then the samples were incubated at 37° C. with shaking for either 10 min. These time points were short enough to minimize metabolic and growth changes (no changes in OD600 or CFU count observed). After incubation, 800 μL of the cultures was carefully layered on 700 μL of silicone oil (9:1 AR20/Sigma High Temperature, cooled to −78° C.). Bacteria were pelleted through the oil by centrifuging at 13 000 r.c.f. for 2 min at room temperature (with the supernatant remaining above the oil); the supernatant and oil were then removed by pipetting. To lyse the samples, each pellet was dissolved in […] of water, and then, they were subjected to three (E. coli) or four (P. aeruginosa) freeze-thaw cycles of 3 min in liquid nitrogen followed by 3 min in a water bath at 65° C. P. aeruginosa samples were then treated with 50 µM DNase and RNase and incubated at 37° C. for 15 minutes. The lysates were pelleted at 13 000 r.c.f. for 2 min at room temperature, and the supernatant was collected ([…]). The debris was resuspended in 100 μL of methanol and pelleted as before. The supernatants were removed and combined with the previous supernatants collected. Finally, the remaining debris was removed by centrifuging at 20 000 r.c.f. for 10 min at room temperature. Supernatants were analyzed by LC-MS/MS.
(§2) Samples were analyzed with the 5500 QTRAP LC/MS/MS system (AB Sciex) with a 1200 series HPLC system (Agilent Technologies) including a degasser, an autosampler, and a binary pump. Liquid chromatography separation was performed on an Agilent SB-Aq column (4.6×50 mm, 5 μm) (Agilent Technologies) with mobile phase A (0.1% formic acid in water) and mobile phase B (0.1% formic acid in acetonitrile). The flow rate was 0.3 mL/min. The linear gradient was as follows: 0-3 min, 100% mobile phase A; 10-15 min, 2% mobile phase A; 15.5-21 min, 100% mobile phase A. The autosampler was set at 5° C. The injection volume was 15 μL. Mass spectra were acquired with both positive electrospray ionization at the ion spray voltage of 5500 V and negative electrospray ionization at the ion spray voltage of −4500 V. The source temperature was 450° C. The curtain gas, ion source gas 1, and ion source gas 2 were 33, 50, and 65, respectively. Multiple reaction monitoring was used to quantify the metabolites. Power analysis was not used to determine the number of replicates. Error bars represent the standard error of the mean of three biological replicates. The statistical significance of the accumulation was determined using a two sample Welch's t test (one-tailed test, assuming unequal variance) relative to the negative controls. All compounds evaluated in the biological assays were >95% pure.
MBN assay. Assays measuring permeabilization by polymyxin B nonapeptide (PMBN) were performed as above, with the addition of 8 μg/mL PMBN immediately before the compound of interest was added.

[2] = test system: E. coli MG1655; test: LC-MS/MS whole-cell accumulation assay, E. coli MG1655; assay type: cell-based; conditions: for EC accum.: E. coli, value ± s.e.m. (Chart 2); for EC Accumulation (FA): E. coli MG1655, accumulation of FA reported (Table 8)
Procedure: as §1, §2

[3] = test system: P. aeruginosa PAΔ6; test: LC-MS/MS whole-cell accumulation assay, PAΔ6; assay type: cell-based, Pseudomonas aeruginosa; conditions: for Fold change (Accum): PAΔ6 Accum / WT Accum (Table 7); for PAΔ6 Accum: ± s.e.m. (Table 7); for change of accumulation in efflux pump knockout PAΔ6 versus WT PAO1: FIG. 1c
Procedure: as §1, §2

[4] = test system: P. aeruginosa PAO1; test: MIC, CLSI broth microdilution, P. aeruginosa PAO1; assay type: cell-based, Pseudomonas aeruginosa; conditions: for MIC: Pseudomonas aeruginosa
Procedure: (§3) Antimicrobial Susceptibility Tests. Susceptibility testing was performed in biological triplicate, using the microdilution broth method as outlined by the Clinical and Laboratory Standards Institute. Bacteria were cultured with cation-adjusted Meuller-Hinton broth (Sigma-Aldrich; catalogue number: 90922) or Luria-Bertani (LB) broth (Lennox) in round-bottom 96-well plates (Corning; catalogue number: 3788).

[5] = test system: P. aeruginosa PAΔ6; test: MIC, efflux pump knockout strain PAΔ6; assay type: cell-based, Pseudomonas aeruginosa; conditions: for Fold change (MIC): WT MIC / PAΔ6 MIC (Table 7); for Fold change: MIC ratio WT PAO1 / PAΔ6 (Table 2)
Procedure: as §3

[6] = test system: E. coli MG1655; test: MIC, E. coli MG1655; assay type: cell-based; conditions: Escherichia coli, MG1655; CLSI (Table 8); read-out: E. coli MG1655 MIC
Procedure: as §3

[7] = test system: WT PA; conditions: retrospective literature analysis (Table 6); cited from earlier work
[8] = test system: WT EC; conditions: retrospective literature analysis (Table 6); cited from earlier work
[9] = WT P. aeruginosa PAO1, MH or LB broth (Table 7), read-out: WT MIC
[10] = PAO1, CLSI (Table 8), read-out: P. aeruginosa PAO1 MIC
[11] = efflux pump KO strain, MH or LB broth (Table 2)

SMILES: N[C@H]1CO[C@H]2[C@@H]1OC[C@H]2OS(=O)(=O)c1ccc(-c2ccccc2)cc1 [Compound 48]
- PA accum. [1]: 282 ± 37 nmol/10^12 CFUs
- EC accum. [2]: 1965 ± 291 nmol/10^12 CFUs

SMILES: COc1cc(Cc2cnc(N)nc2N)cc(OC)c1OC [Trimethoprim]
- Fold change (Accum) [3]: 2.6
- PAΔ6 Accum [3]: 356 ± 28 nmol/10^12 CFUs
- MIC [4, 9]: > 512 µg/mL
- WT Accum [1]: 136 ± 11 nmol/10^12 CFUs
- PAΔ6 MIC ([5]; MH or LB broth (Table 7)): 2 µg/mL
- Fold change (MIC) [5]: >256

SMILES: Cc1cc(NS(=O)(=O)c2ccc(N)cc2)no1 [Sulfamethoxazole]
- Fold change (Accum) [3]: 4.2
- PAΔ6 Accum [3]: 420 ± 15 nmol/10^12 CFUs
- MIC [4, 9]: > 64 µg/mL
- WT Accum [1]: 101 ± 26 nmol/10^12 CFUs
- PAΔ6 MIC ([5]; MH or LB broth (Table 7)): 4 µg/mL
- Fold change (MIC) [5]: >16

SMILES: Cn1cc(C2=C(c3c4n(c5ccccc35)CC[C@H](CN)C4)C(=O)NC2=O)c2ccccc21 [Compound 55]
- PA accum. [1]: 1193 ± 27 nmol/10^12 CFUs
- EC accum. [2]: 17 ± 7 nmol/10^12 CFUs

SMILES: CC(=O)O[C@H]1C[C@@]2(C)[C@@H](C[C@@H](O)[C@H]3[C@@]4(C)CC[C@@H](O)[C@@H](C)[C@@H]4CC[C@@]32C)/C1=C(\CCC=C(C)C)C(=O)O/N=C(\N)CNCCCN [FA prodrug 2]
- MIC [6]: 256 µg/mL (≈ 397 µM)
- MIC [4, 10]: > 256 µg/mL
- EC Accumulation (FA) [2]: 969 ± 71 nmol/1012 CFUs

SMILES: N#Cc1ccc(-c2cncc3c2CCCC3N)cc1 (centres unmarked) [Compound 52]
- PA accum. [1]: 161 ± 12 nmol/10^12 CFUs
- EC accum. [2]: 929 ± 39 nmol/10^12 CFUs

SMILES: NCCCCCCNS(=O)(=O)c1cccc2ccccc12 [Compound 54]
- PA accum. [1]: 399 ± 63 nmol/10^12 CFUs
- EC accum. [2]: 108 ± 17 nmol/10^12 CFUs

SMILES: N[C@H]1CO[C@H]2[C@@H]1OC[C@H]2OS(=O)(=O)c1ccc(Br)cc1 [Compound 49]
- PA accum. [1]: 217 ± 3 nmol/10^12 CFUs
- EC accum. [2]: 1647 ± 108 nmol/10^12 CFUs

SMILES: C=C[C@]1(C)C[C@@H](OC(=O)CSC(C)(C)CNC(=O)[C@H](N)C(C)C)[C@]2(C)[C@H](C)CC[C@]3(CCC(=O)[C@H]32)[C@@H](C)[C@@H]1O [Valnemulin]
- change of accumulation in efflux pump knockout PAΔ6 versus WT PAO1 [3]: increase in accumulation
- MIC ([4]; PAO1, read-out: PAO1 MIC): 256 µg/mL (≈ 453 µM)
- MIC ([4]; PAO1, read-out: WT MIC): 256 µg/mL (≈ 453 µM)
- PAO1 + PMBN MIC ([4]; co-treatment of 8 μg/mL of PMBN, MH broth): 1 µg/mL
- change of accumulation upon membrane permeabilization ([1]; treatment with PMBN, FIG. 1b): significant increase in accumulation
- Fold change [5]: 2048
- PAΔ6 MIC [5, 11]: 0.125 µg/mL

SMILES: CCNc1cc(F)cc2c1[nH]c1ncc(-c3cnc(OC)nc3)c(-n3ncc4c3CNC4)c12 [Compound 17x]
- WT PA MIC [7]: 10 µg/mL
- WT EC MIC [8]: 0.81 µg/mL

SMILES: Cc1ccc(C(=O)N(CCCN)[C@@H](c2nc3cc(Cl)ccc3c(=O)n2Cc2ccccc2)C(C)C)cc1 [Compound 56]
- PA accum. [1]: 658 ± 113 nmol/10^12 CFUs
- EC accum. [2]: 244 ± 31 nmol/10^12 CFUs

SMILES: NC1CCCc2c1cncc2N1Cc2cc(Cl)ccc2C1=O (centres unmarked) [Compound 51]
- PA accum. [1]: 222 ± 11 nmol/10^12 CFUs
- EC accum. [2]: 500 ± 10 nmol/10^12 CFUs

SMILES: Cc1nc(-c2ccc(C(C)(C)C)cc2)ncc1C(=O)N[C@@H](CCO)C(=O)N(C)[C@@H]1C(=O)N[C@@H](C)C(=O)N[C@H](C(=O)NCC#N)Cc2ccc(O)c(c2)-c2cc1ccc2O [Compound G8126]
- WT PA MIC [7]: >64 µg/mL
- WT EC MIC [8]: 32 µg/mL

SMILES: CC(=O)O[C@H]1C[C@@]2(C)[C@@H](C[C@@H](O)[C@H]3[C@@]4(C)CC[C@@H](O)[C@@H](C)[C@@H]4CC[C@@]32C)/C1=C(\CCC=C(C)C)C(=O)O/N=C(\N)CN [FA prodrug 1]
- MIC [6]: > 256 µg/mL
- MIC [4, 10]: > 256 µg/mL
- EC Accumulation (FA) [2]: 850 ± 61 nmol/1012 CFUs

SMILES: CC(=O)O[C@H]1C[C@@]2(C)[C@@H](C[C@@H](O)[C@H]3[C@@]4(C)CC[C@@H](O)[C@@H](C)[C@@H]4CC[C@@]32C)/C1=C(\CCC=C(C)C)C(=O)NCCCNCCCNCCCN [FA polyamine]
- antibacterial activity (in words) ([4]; Chart 6, strain not given): no longer has potent antibacterial activity
- increase in accumulation relative to FA ([1]; text b129): 30 -fold

SMILES: CN1C(=O)CCc2cc(-c3cncc4c3CCC[C@H]4N)ccc21 [Compound 53]
- PA accum. [1]: 282 ± 37 nmol/10^12 CFUs
- EC accum. [2]: 437 ± 28 nmol/10^12 CFUs

SMILES: Cc1ccc(S(=O)(=O)O[C@@H]2CO[C@H]3[C@@H]2OC[C@@H]3N)cc1 [Compound 50]
- PA accum. [1]: 163 ± 39 nmol/10^12 CFUs
- EC accum. [2]: 877 ± 29 nmol/10^12 CFUs

SMILES: CC(=O)O[C@H]1C[C@@]2(C)[C@@H](C[C@@H](O)[C@H]3[C@@]4(C)CC[C@@H](O)[C@@H](C)[C@@H]4CC[C@@]32C)/C1=C(\CCC=C(C)C)C(=O)O/N=C(\N)CNCCCNCCCN [FA prodrug 3]
- MIC [6]: 32 µg/mL (≈ 45.6 µM)
- MIC [4, 10]: 128 µg/mL (≈ 182 µM)
- EC Accumulation (FA) [2]: 1764 ± 37 nmol/1012 CFUs

SMILES: O=C(N[C@H](CO)[C@H](O)c1ccc([N+](=O)[O-])cc1)C(Cl)Cl [Chloramphenicol]
- change of accumulation in efflux pump knockout PAΔ6 versus WT PAO1 [3]: increase in accumulation
- Fold change (Accum) [3]: 4.4
- PAΔ6 Accum [3]: 537 ± 19 nmol/10^12 CFUs
- MIC ([4]; WT P. aeruginosa PAO1, MH or LB broth (Table 2), read-out: WT MIC): > 512 µg/mL
- WT MIC ([4]; WT P. aeruginosa PAO1, MH or LB broth (Table 7)): >512 µg/mL
- WT Accum [1]: 122 ± 23 nmol/10^12 CFUs
- PAΔ6 MIC ([5]; MH or LB broth (Table 7)): 4 µg/mL
- Fold change [5]: >128
- Fold change (MIC) [5]: >128
- PAΔ6 MIC [5, 11]: 4 µg/mL
